According to patent US6699868B2, “Pyridazinyl phenyl hydrazones useful against congestive heart failure” (Orion Corporation, priority 2000, dated 2004):

| Structure (SMILES) | melting point [°C] |
| --- | --- |
| CC1CC(=O)NN=C1c1ccc(NN=Cc2c([N+](=O)[O-])cccc2[N+](=O)[O-])cc1 (centres unmarked) | 216 to 218 |
| CC1CC(=O)NN=C1c1ccc(NN=Cc2ccc([N+](=O)[O-])cc2[N+](=O)[O-])cc1 (centres unmarked) | 278 to 280 |
| CCOC(=O)c1c(O)ccc(C(=NN)c2ccc(C3=NNC(=O)CC3C)cc2)c1O (centres unmarked) [Example 3, 2,6-Dihydroxy-3-{[4-(4-methyl-6-oxo-1,4,5,6-tetrahydro-pyridazin-3-yl)-phenyl]-hydrazonomethyl}-benzoic acid Ethyl Ester] | 203 to 208 |
| CC1CC(=O)NN=C1c1ccc(C(=NN)c2ccccc2C(=O)O)cc1 (centres unmarked) [Example 10, 2-{[4-(4-Methyl-6-oxo-1,4,5,6-tetrahydro-pyridazin-3-yl)-phenyl]-hydrazonomethyl}-benzoic acid] | 250 to 251 |
| CC1CC(=O)NN=C1c1ccc(NN=Cc2ccccc2C(F)(F)F)cc1 (centres unmarked) [Example 11, 6-{4-[N′-(2-trifluoromethyl-benzylidene)-hydrazino]-phenyl}-5-methyl-4,5-dihydro-2H-pyridazin-3-one] | 113 to 115 |
| COc1c(OC(C)=O)ccc(C(=NN)c2ccc(C3=NNC(=O)CC3C)cc2)c1[N+](=O)[O-] (centres unmarked) [Example 12, Acetic acid 2-Methoxy-4-{[4-(4-methyl-6-oxo-1,4,5,6-tetrahydro-pyridazin-3-yl)-phenyl]-hydrazonomethyl}-3-nitro-phenyl ester] | 220 to 223 |
| CC(=NNc1ccc(C2=NNC(=O)CC2C)cc1)c1cc(O)cc(O)c1 (centres unmarked) [Example 13, 6-(4-{N′-[1-(3,5-Dihydroxy-phenyl)-ethylidene]-hydrazino}-phenyl)-5-methyl-4,5-dihydro-2H-pyridazin-3-one] | 162 to 166 |
| COc1ccc(CCC(=NNc2ccc(C3=NNC(=O)CC3C)cc2)c2ccc(O)cc2O)cc1OC (centres unmarked) [Example 14, 6-(4-{N′-[1-(2,4-Dihydroxy-phenyl)-3-(3,4-dimethoxy-phenyl)-propylidene]-hydrazino}-phenyl)-5-methyl-4,5-dihydro-2H-pyridazin-3-one] | 135 to 140 |
| O=c1[nH]nc(-c2ccc(NN=C(c3ccccc3)c3ccc(O)cc3O)cc2)c2ccccc12 [Example 15, 4-(4-{N′-[(2,4-Dihydroxy-phenyl)-phenyl-methylene]-hydrazino}-phenyl)-2H-phthalazin-1-one] | 160 to 170 |
| O=c1[nH]nc(-c2ccc(NN=C(c3ccc(O)cc3)c3ccc(O)cc3O)cc2)c2ccccc12 [Example 16, 4-(4-{N′-[(2,4-Dihydroxy-phenyl)-(4-hydroxy-phenyl)-methylene]-hydrazino}-phenyl)-2H-phthalazin-1-one] | 150 to 160 |
| O=c1[nH]nc(-c2ccc(NN=C(c3ccc(O)cc3O)c3ccc(O)cc3O)cc2)c2ccccc12 [Example 17, 4-(4-{N′-[Bis-(2,4-dihydroxy-phenyl)-methylene]-hydrazino}-phenyl)-2H-phthalazin-1-one] | 140 to 146 |
| CC1CC(=O)NN=C1c1ccc(NN=Cc2ccc(S(C)(=O)=O)cc2)cc1 (centres unmarked) [Example 19, 6-{4-[N′-(4-Methanesulfonylbenzylidene)hydrazino]phenyl}-5-methyl-4,5-dihydro-2H-pyridazin-3-one] | 130 to 137 |
| CC1CC(=O)NN=C1c1ccc(C(=NN)c2cccc(C#N)c2)cc1 (centres unmarked) [Example 20, 3-{[4-(4-Methyl-6-oxo-1,4,5,6-tetrahydropyridazin-3-yl)phenyl]-hydrazonomethyl}-benzonitrile] | 220 to 224 |
| CC(=O)Nc1ccc(C(=NN)c2ccc(C3=NNC(=O)CC3C)cc2)c(O)c1 (centres unmarked) [Example 41, N-(3-Hydroxy-4-{[4-(4-methyl-6-oxo-1,4,5,6-tetrahydro-pyridazin-3-yl)-phenyl]-hydrazonomethyl}-phenyl)-acetamide] | 269 to 275 |
| CC1CC(=O)NN=C1c1ccc(NN=Cc2ccc(Cl)cc2Cl)cc1 (centres unmarked) [Example 42, 6-{4-[N′-(2,4-Dichloro-benzylidene)-hydrazino]-phenyl}-5-methyl-4,5-dihydro-2H-pyridazin-3-one] | 252 to 254 |
| CC1CC(=O)NN=C1c1ccc(NN=Cc2ccc([N+](=O)[O-])cc2)cc1 (centres unmarked) [Example 52, 6-{4-[N′-(4-nitrobenzylidene)-hydrazino]-phenyl}-5-methyl-4,5-dihydro-2H-pyridazin-3-one] | 216 to 217 |
| COc1ccccc1C=NNc1ccc(C2=NNC(=O)CC2C)cc1 (centres unmarked) [Example 53, 6-{4-[N′-(2-Methoxy-benzylidene)-hydrazino]-phenyl}-5-methyl-4,5-dihydro-2H-pyridazin-3-one] | 180 to 183 |
| COc1ccc(C=NNc2ccc(C3=NNC(=O)CC3C)cc2)cc1 (centres unmarked) [Example 55, 6-{4-[N′-(4-Methoxy-benzylidene)-hydrazino]-phenyl}-5-methyl-4,5-dihydro-2H-pyridazin-3-one] | 172 to 174 |
| CC1CC(=O)NN=C1c1ccc(C(=NN)c2ccc(O)c(C(=O)O)c2O)cc1 (centres unmarked) [Example 56, 2,6-Dihydroxy-3-{[4-(4-methyl-6-oxo-1,4,5,6-tetrahydro-pyridazin-3-yl)-phenyl]-hydrazonomethyl}-benzoic acid] | 215 to 218 |
| CC1CC(=O)NN=C1c1ccc(NN=Cc2ccccc2[N+](=O)[O-])cc1 (centres unmarked) [Example 58, 6-{4-[N′-(2-nitro-benzylidene)-hydrazino]-phenyl}-5-methyl-4,5-dihydro-2H-pyridazin-3-one] | 250 to 253 |
| CC1CC(=O)NN=C1c1ccc(C(=NN)c2ccc(C#N)cc2)cc1 (centres unmarked) [Example 60, 4-{[4-(4-Methyl-6-oxo-1,4,5,6-tetrahydro-pyridazin-3-yl)-phenyl]-hydrazonomethyl}-benzonitrile] | 246 to 248 |
| CC1CC(=O)NN=C1c1ccc(NN=Cc2cccc(O)c2)cc1 (centres unmarked) [Example 62, 6-{4-[N′-(3-Hydroxy-benzylidene)-hydrazino]-phenyl}-5-methyl-4,5-dihydro-2H-pyridazin-3-one] | 267 to 270 |

Other lines, results leading:

| melting point [°C] | Structure (SMILES) |
| --- | --- |
| 299 to 300 | CC1CC(=O)NN=C1c1ccc(NN=Cc2cc([N+](=O)[O-])ccc2O)cc1 (centres unmarked) [Example 5, 6-{4-[N′-(2-Hydroxy-5-nitro-benzylidene)-hydrazino]-phenyl}-5-methyl-4,5-dihydro-2H-pyridazin-3-one] |
| 245 to 247 | CC1CC(=O)NN=C1c1ccc(NN=Cc2cccc(O)c2O)cc1 (centres unmarked) [Example 7, 6-{4-[N′-(2,3-Dihydroxy-benzylidene)-hydrazino]-phenyl}-5-methyl-4,5-dihydro-2H-pyridazin-3-one] |
| 317 to 320 | CC1CC(=O)NN=C1c1ccc(NN=Cc2cc(O)ccc2O)cc1 (centres unmarked) [Example 8, 6-{4-[N′-(2,5-Dihydroxy-benzylidene)-hydrazino]-phenyl}-5-methyl-4,5-dihydro-2H-pyridazin-3-one] |
| 239 to 241 | CC1CC(=O)NN=C1c1ccc(NN=Cc2ccc(O)c(O)c2[N+](=O)[O-])cc1 (centres unmarked) [Example 9, 6-{4-[N′-(3,4-Dihydroxy-2-nitro-benzylidene)-hydrazino]-phenyl}-5-methyl-4,5-dihydro-2H-pyridazin-3-one] |
| 278 to 283 | O=c1[nH]nc(-c2ccc(NN=Cc3ccc(O)cc3O)cc2)c2ccccc12 [Example 18, 4-{4-[N′-(2,4-Dihydroxy-benzylidene)-hydrazino]-phenyl}-2H-phthalazin-1-one] |
| 264 to 268 | COc1c(O)ccc(C=NNc2ccc(-c3n[nH]c(=O)cc3C)cc2)c1[N+](=O)[O-] [Example 22, 6-{4-[N′-(4-Hydroxy-3-methoxy-2-nitrobenzylidene)hydrazino]phenyl}-5-methyl-2H-pyridazin-3-one] |
| 304 to 306 | Cn1nc(-c2ccc(NN=Cc3ccc(O)cc3O)cc2)ccc1=O [Example 25, 6-{4-[N′-(2,4-Dihydroxybenzylidene)hydrazino]phenyl}-2-methyl-2H-pyridazin-3-one] |
| 225 to 233 | CCC(=NNc1ccc(-c2ccc(=O)n(C)n2)cc1)c1ccc(O)cc1O [Example 27, 6-{4-{N′-[1-(2,4-Dihydroxyphenyl)propylidene]hydrazino}phenyl}-2-methyl-2H-pyridazin-3-one] |
| 262 to 266 | CCc1c(O)ccc(C=NNc2ccc(-c3ccc(=O)n(C)n3)cc2)c1O [Example 28, 6-{4-[N′-(2,4-Dihydroxy-3-ethylbenzylidene)hydrazino]phenyl}-2-methyl-2H-pyridazin-3-one] |
| 138 to 141 | Cn1nc(-c2ccc(NN=C(CCC(=O)O)c3ccc(O)cc3O)cc2)ccc1=O [Example 29, 4-(2,4-Dihydroxyphenyl)-4-{[4-(1-methyl-6-oxo-1,6-dihydropyridazin-3-yl)phenyl]hydrazono}butyric acid] |
| 270 to 275 | CCC1CC(=O)NN=C1c1ccc(NN=Cc2ccc(O)cc2O)cc1 (centres unmarked) [Example 36, 6-{4-[N′-(2,4-Dihydroxy-benzylidene)-hydrazino]-phenyl}-5-ethyl-4,5-dihydro-2H-pyridazin-3-one] |
| 268 to 270 | CC(=O)c1c(O)ccc(C=NNc2ccc(C3=NNC(=O)CC3C)cc2)c1O (centres unmarked) [Example 39, 6-{4-[N′-(3-Acetyl-2,4-dihydroxy-benzylidene)-hydrazino]-phenyl}-5-methyl-4,5-dihydro-2H-pyridazin-3-one] |
| 218 | CCCCc1c(O)ccc(C=NNc2ccc(C3=NNC(=O)CC3C)cc2)c1O (centres unmarked) [Example 44, 6-{4-[N′-(3-Butyl-2,4-dihydroxy-benzylidene)-hydrazino]-phenyl}-5-methyl-4,5-dihydro-2H-pyridazin-3-one] |
| 265 to 268 | CC1CC(=O)NN=C1c1ccc(NN=Cc2ccccc2O)cc1 (centres unmarked) [Example 54, 6-{4-[N′-(2-Hydroxy-benzylidene)-hydrazino]-phenyl}-5-methyl-4,5-dihydro-2H-pyridazin-3-one] |
| 210 to 213 | COc1cccc(C=NNc2ccc(C3=NNC(=O)CC3C)cc2)c1O (centres unmarked) [Example 57, 6-{4-[N′-(2-Hydroxy-3-methoxy-benzylidene)-hydrazino]-phenyl}-5-methyl-4,5-dihydro-2H-pyridazin-3-one] |
| 258 to 261 | CC1CC(=O)NN=C1c1ccc(NN=Cc2ccc(O)cc2)cc1 (centres unmarked) [Example 61, 6-{4-[N′-(4-Hydroxy-benzylidene)-hydrazino]-phenyl}-5-methyl-4,5-dihydro-2H-pyridazin-3-one] |
